Source: US20080312435A1, “Imine Compound” (TAISHO PHARMACEUTICAL CO., LTD., priority 2004, published 2008)

| melting point [°C] | Compound |
| --- | --- |
| 68 to 69 | COCCn1c(C)c(C(C)(C)C)s/c1=N\C(=O)c1ccc(Cl)cc1F |
| 138 to 140 | Cc1c(C(C)(C)C)s/c(=N\C(=O)c2cc(C(F)(F)F)ccc2N2CCCCC2)n1CC1CC1 |
| 100 to 102 | Cc1c(C(C)(C)C)s/c(=N\C(=O)c2cc(C(F)(F)F)ccc2N2CCC2)n1CC1CC1 |
| 113 to 114 | CC(C)c1ccccc1C(=O)/N=c1\cc(C(C)(C)C)n(C)n1CC1CC1 |
| 88.5 to 89 | O=C(/N=c1\ccccn1CC1CC1)c1cc(F)ccc1C(F)(F)F |
| 178 to 180 | Cc1c(C(C)(C)C)s/c(=N\C(=O)c2ccccc2O)n1CC1CC1 |
| 89 to 90 | Cc1c(C(C)(C)C)s/c(=N\C(=O)c2cccc(N3CCCCC3)c2)n1CC1CC1 |
| 131 to 132 | COCCNC1=C(C(=O)/N=c2\sc(C(C)(C)C)c(C)n2CC2CC2)CC(C(F)(F)F)C=C1 (stereo not shown) |
| 157 to 159 | Cc1c(C(C)(C)C)s/c(=N\C(=O)Cc2cccs2)n1CC1CC1 |
| 212 to 214 | Cc1c(C(=O)NC(C)C)s/c(=N\C(=O)c2cccc(C(F)(F)F)c2)n1CC1CC1 |
| 125 to 127 | Cc1c(C(=O)N2CCCC2)s/c(=N\C(=O)c2cccc(C(F)(F)F)c2)n1CC1CC1 |
| 131 to 133 | Cc1c(C(C)(C)C)s/c(=N\C(=O)c2cccc(C#N)c2)n1C |
| 94 to 95 | COc1ccncc1C(=O)/N=c1\sc(C(C)(C)C)nn1CC1CC1 |
| 151 to 153 | Cc1c(C(C)(C)C)s/c(=N\C(=O)c2cccnc2OC(C)C)n1CC1CC1 |
| 53.5 to 54.5 | O=C(/N=c1\ccccn1CC1CC1)c1cc(Cl)ccc1Cl |
| 67 to 69 | CCC(CC)C(=O)/N=c1\sc(C)c(C)n1CC1CC1 |
| 128 to 129 | COc1cc(Cl)ccc1C(=O)/N=c1\cc(C(C)(C)C)n(C)n1CC1CC1 |
| 131 to 132 | CCCNc1ccc(C(F)(F)F)cc1C(=O)/N=c1\sc(C(C)(C)C)c(C)n1CC1CC1 |
| 88 to 90 | COCCCn1/c(=N/C(=O)c2cccc(C(F)(F)F)c2F)cc(C)n1C |

| melting point [°C] | Compound |
| --- | --- |
| 122 to 124 | Cn1c(C(C)(C)C)c/c(=N\C(=O)C(F)(F)F)n1CC1CC1 |
| 127 to 127.5 | O=C(/N=c1\ccccn1CC1CC1)c1cc(C(F)(F)F)ccc1F |
| 173 to 174 | Cc1cn(C)/c(=N/C(=O)c2cccnc2)s1 |
| 96 to 97 | O=C(/N=c1\sccn1CC1CC1)c1cccc(C(F)(F)F)c1F |
| 189 to 191 | Cc1c(C(C)(C)C)s/c(=N\C(=O)C2CCC2)n1CC1CC1 |
| 161 to 162 | Cc1ccc(F)cc1C(=O)/N=c1\cc(C(C)(C)C)n(C)n1CC1CC1 |
| 160 to 161 | Cc1cc2s/c(=N\C(=O)c3ccccc3C)n(CC3CC3)c2cc1C |
| 104 to 105 | CCCc1c(C(=O)/N=c2\sc(C(C)(C)C)c(C)n2CC2CC2)cnn1-c1ccccc1 |
| 110 to 111 | Cn1c(C(C)(C)C)c/c(=N\C(=O)c2cccc(OC(F)(F)C(F)F)c2)n1CC1CC1 |
| 62 to 63 | CC(C)(C)c1nn(CC2CC2)/c(=N/C(=O)c2cnccc2Cl)s1 |
| 114 to 115 | Cc1c(C(C)(C)C)s/c(=N\C(=O)c2cccc(N3CCOCC3)c2)n1CC1CC1 |
| 135 to 137 | Cc1c(C(C)(C)C)s/c(=N\C(=O)c2cccc(C(F)(F)F)c2)n1C(C)C |
| 88 to 89 | O=C(/N=c1\ccccn1CC1CC1)c1cccc(F)c1C(F)(F)F |
| 173 to 175 | Cc1c(C(C)(C)C)s/c(=N\C(=O)c2cccc(Br)c2)n1C |
| 86 to 88 | CC(C)n1cccc/c1=N\C(=O)c1cccc(C(F)(F)F)c1F |
| 113 to 115 | CCn1c(C)c(C(C)(C)C)s/c1=N\C(=O)C(F)(F)C(F)(F)C(F)(F)F |
| 122 to 123 | COC(=O)c1ccc(C(=O)/N=c2\sc(C(C)(C)C)c(C)n2CC2CC2)cc1 |
| 168.5 to 169.5 | Cn1c(C2CC2)c/c(=N\C(=O)c2cccc(C(F)(F)F)c2F)n1-c1ccccc1 |
